Test results reported in patent US5403840A, “Inclusion complexes of N-ethoxycarbonyl 1-3-morpholino-sydnonimine or salts formed with cyclodextrin-derivatives, preparation thereof and pharmaceutical compositions containing the same” (Chinoin Gyogyszer-Es Vegyeszeti Termekek Gyar Rt., priority 1990, dated 1995).
Values after ≈ are worked out from the molar mass of the structure shown.

Assays:
[1] = Membrane permeation test, dialysis profile of Molsidomin-β-CD granule; type: physicochemical; conditions: Molsidomin 1 mg/ml or equivalent granule, 100% diffusion = 0.33 mg/ml
Procedure: Visking-type cellophane membrane (average pore diameter 24 angstroms) was used. Aqueous solutions of Molsidomin at a concentration of 1 and 2 mg/ml were put in the donor cell, while distilled water was placed in the receptor compartment of the membrane permeation cell apparatus.
Dialysis profile of Molsidomin-β-CD granule was examined using the same permeation cell as described above.
Molsidomin at a concentration of 1 mg/ml and equivalent amount of complex granule were used in the experiment
100% diffusion corresponding to 0.33 mg/ml Molsidomin concentration in the receptor cell.

[2] = Molsidomin alone, no cyclodextrin; 37 °C; donor 1 and 2 mg/ml
Procedure: Visking-type cellophane membrane (average pore diameter 24 angstroms) was used. Aqueous solutions of Molsidomin at a concentration of 1 and 2 mg/ml were put in the donor cell, while distilled water was placed in the receptor compartment of the membrane permeation cell apparatus. The solutions were stirred by magnetic stirrers and were kept at 37+1° C. At appropriate time intervals samples were pipetted from the receptor solutions and concentration of Molsidomin permeated from the donor cell was measured by UV-spectrophotometry. The test was repeated in the presence of different cyclodextrins at different concentrations in the donor cell compartment.

[3] = 25° C.; cited from earlier work
[4] = pH value of 5-7; cited from earlier work
[5] = oral; cited from earlier work
angina pectoris = conditions: cited from earlier work
[6] = percutaneous, cited from earlier work
[7] = compared to the organic nitrates; cited from earlier work

CCOC(=O)[N-]c1cn(N2CCOCC2)n[o+]1 [Molsidomin, N-ethoxycarbonyl-3-morpholino-sydnonimine]
Concentration of Molsidomin in the receptor cell ([1]; 1 hour): 200 µg/mL
Concentration of Molsidomin in the receptor cell ([1]; 2 hours): 290 µg/mL
Concentration of Molsidomin in the receptor cell ([1]; 3 hours): 320 µg/mL
Concentration of Molsidomin in the receptor cell ([1]; 4 hours): 340 µg/mL
Diffusion half life (T 50%) of Molsidomin [2]: 1.0 h
solubility in water [3]: 18 mg/mL (≈ 74.3 mM)
stability in water [4]: stable
absorption along the whole Gi-tract [5]: fairly absorbed
bioavailability [5]: satisfactory
duration of effect compared to the organic nitrates (angina pectoris; compared to the organic nitrates): more lasting
duration of effect of oral preparation (angina pectoris; oral, 2 mg of the active ingredient): 3 to 5 h
bioavailability through the skin ([6]; Molsidomin itself): 4%
resorption through the skin ([6]; Molsidomin itself): resorbed slowly and to a small extent
resorption of Molsidomin relative to propylene-glycol [6]: of similar extent, and of similar quantity
habit forming [7]: does not become habit forming
headaches [7]: rarely induces headaches which are also less severe
side-effects [7]: less side-effects
